PubChem BioAssay (NCI)
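Each compound was tested at five concentrations against cells in 96-well plates for 48 hours. The concentration for 50% growth inhibition is given as GI50. TGI denotes the concentration required for complete inhibition of growth.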

Tests used:
Test in all cases: growth of human tumour cells (NCI), 48 h
NCI/ADR-RES ovarian = test system: NCI/ADR-RES ovarian
LOX IMVI melanoma = test system: LOX IMVI melanoma
NCI-H226 lung = test system: NCI-H226 lung
PC-3 prostate = test system: PC-3 prostate
A498 renal = test system: A498 renal
MALME-3M melanoma = test system: MALME-3M melanoma
RPMI-8226 leukemia = test system: RPMI-8226 leukemia
SW-620 colon = test system: SW-620 colon

SMILES	TGI (NCI/ADR-RES ovarian) [µM]	TGI (LOX IMVI melanoma) [µM]	TGI (NCI-H226 lung) [µM]	TGI (PC-3 prostate) [µM]	TGI (A498 renal) [µM]	TGI (MALME-3M melanoma) [µM]	TGI (RPMI-8226 leukemia) [µM]	TGI (SW-620 colon) [µM]	GI50 (LOX IMVI melanoma) [µM]	GI50 (NCI-H226 lung) [µM]	GI50 (RPMI-8226 leukemia) [µM]	GI50 (SW-620 colon) [µM]	GI50 (PC-3 prostate) [µM]
C=C(C1=CC(=O)C(C)(C)O1)[C@@H]1CC=C([C@@H]2CC[C@H]3[C@@]2(C)CC[C@H]2C(C)(C)C(=O)[C@H](O)C[C@]32C)[C@H](O)O1	25.4	3.45	40.3	2.68	9.89	5.27	–	–	–	–	–	–	–
CCOC(=O)Nn1c(C)nnc1-c1ccccc1	> 100	> 100	> 100	> 100	> 100	> 100	> 100	> 100	–	–	–	–	–
O=C(Cc1cccs1)N[C@@H]1C(=O)N2C(C(=O)OC(c3ccccc3)c3ccccc3)=C(CO)CS[C@H]12	> 100	> 100	96.9	> 100	> 100	> 100	> 100	> 100	–	–	–	–	–
COc1ccc(/C=C2\CCC(C)C3=C2NC(=S)NC3c2ccc(OC)c(OC)c2)cc1OC (centres undefined)	> 100	> 31.6	> 100	> 31.6	> 31.6	–	> 31.6	> 31.6	–	–	–	–	–
Clc1ccc(/C=C/c2nc3ccccc3s2)cc1Cl	> 100	3.12	–	3.66	–	> 100	> 100	–	–	–	–	–	–
N#CC1=C(N)N(c2ccccc2)C(c2ccco2)C1(C#N)C#N (centres undefined)	56.2	31.1	42	60.5	49.1	52.8	45.5	39.2	–	–	–	–	–
Oc1cc2c3c(c1)c1cc4c(cc1c[n+]3CC2)OCO4	–	18.4	17.2	37.3	> 74.7	7.85	6.46	> 36.6	–	–	–	–	–
O=C1/C(=C/c2ccc(O)cc2)CC/C1=C\c1ccc(O)cc1	> 100	> 100	> 100	> 100	> 100	> 100	> 100	> 100	–	–	–	–	–
CC[C@@]1(O)C(=O)OCc2c1cc1n(c2=O)Cc2c-1nc1ccccc1c2/C=N\NC(=O)CN	> 76.5	1.36	3.54	> 100	3.76	> 91.6	18.8	> 100	–	–	–	–	–
O=C1C(=Cc2ccc(O)cc2)N=C(c2ccccc2)N1n1c(-c2ccccc2)nc2ccccc2c1=O	–	> 100	> 100	> 100	–	> 100	> 100	> 100	–	–	–	–	–
COc1ccc2c(=O)c(O)c(-c3ccc(OC)c(OC)c3)oc2c1	8.25	> 100	–	> 100	> 100	> 100	> 100	> 100	–	–	–	–	–
CC(C)CC(=O)OC[n+]1ccc(-c2c(COC(=O)NC(C)C)c(COC(=O)NC(C)C)c3n2CCC3)cc1	> 100	> 100	> 100	> 100	> 100	> 100	> 100	> 100	–	–	–	–	–
COc1ccc(C(OCC2OC(n3cc(C)c(=O)[nH]c3=O)CC2n2cc(Cn3cc(I)c(=O)[nH]c3=O)nn2)(c2ccccc2)c2ccccc2)cc1 (centres undefined)	> 100	> 100	> 100	> 100	> 100	> 100	> 100	> 100	–	–	–	–	–
Cc1ccccc1-n1c(=O)c2ncn(CCCl)c2n(-c2ccccc2C)c1=S	> 100	> 100	> 100	> 100	> 100	–	> 100	> 100	–	–	–	–	–
Cc1nc(C(N)=S)sc1/C(CC(=O)C(=O)Nc1cccc2ccc(O)cc12)=N\NC(=O)c1ccncc1	> 100	> 100	> 100	> 100	–	–	–	> 100	–	–	–	–	–
Cc1cccc(/C=N/NC(=S)Nc2ccccc2)n1	10.8	21.4	> 25	> 91.1	67	64.2	75.6	> 100	–	–	–	–	–
COc1c(C)c(C/C=C(\C)CCCCO[Si](c2ccccc2)(c2ccccc2)C(C)(C)C)c(OC)c(OC)c1OC	35.1	58.3	> 100	> 100	> 100	> 100	> 46.4	> 46.4	–	–	–	–	–
C[C@@]12C[C@@H](c3ccccc3O1)N1CCCCSC1=N2	> 100	> 100	> 100	> 100	> 100	> 100	> 100	> 100	–	–	–	–	–
CCNC(=S)N/N=C/c1cc([N+](=O)[O-])ccc1O	77.3	> 100	> 100	> 100	69.1	> 100	–	> 100	–	–	–	–	–
O=C1OCC(O)=C1C(c1ccc(Cl)cc1)c1cc2c(cc1O)OCO2 (centres undefined)	> 100	> 100	> 100	> 100	> 100	> 100	–	> 100	–	–	–	–	–
O=C(O)CN(CC(=O)O)C1CCCCC1N(CC(=O)O)CC(=O)NCCN=C=S (centres undefined)	> 100	> 100	> 100	> 100	> 100	> 100	> 100	> 100	–	–	–	–	–
Cc1ccsc1/C=N/Nc1ncccn1	> 100	> 100	> 100	> 100	> 100	> 100	> 100	> 100	–	–	–	–	–
O=S1(=O)NC(=NCc2c[nH]c3ccccc23)N(c2ccccc2)c2ccncc21	> 100	> 100	> 100	> 100	> 100	> 100	–	> 100	–	–	–	–	–
Cc1ccc(SCC(CSCCO)OCn2cnc3c2NC(N)=NC32OCCO2)cc1 (centres undefined)	> 100	> 100	–	> 100	> 100	> 100	> 100	> 100	–	–	–	–	–
Cc1cn(C2CC(n3cc(Cn4cc(I)c(=O)[nH]c4=O)nn3)C(CO)O2)c(=O)[nH]c1=O (centres undefined)	> 100	–	> 100	> 100	> 100	–	> 100	> 100	–	–	–	–	–
CNC(=O)OCC1=C(COC(=O)NC)C(C)N(c2ccc(OC)cc2)C1 (centres undefined)	> 100	> 100	6.21	> 100	1.74	> 100	> 100	> 100	–	–	–	–	–

SMILES	TGI (NCI/ADR-RES ovarian) [µM]	TGI (LOX IMVI melanoma) [µM]	TGI (NCI-H226 lung) [µM]	TGI (PC-3 prostate) [µM]	TGI (A498 renal) [µM]	TGI (MALME-3M melanoma) [µM]	TGI (RPMI-8226 leukemia) [µM]	TGI (SW-620 colon) [µM]	GI50 (LOX IMVI melanoma) [µM]	GI50 (NCI-H226 lung) [µM]	GI50 (RPMI-8226 leukemia) [µM]	GI50 (SW-620 colon) [µM]	GI50 (PC-3 prostate) [µM]
O=[N+]([O-])/C(C(Cl)=C(Cl)Cl)=C(\SCc1ccccc1)N1CCCCC1	–	35	53.2	74.8	70.1	27.1	92.9	–	–	–	–	–	–
CCC1(O)CC2CC(=O)OC2C1O (centres undefined)	> 100	> 100	> 100	> 100	> 100	> 100	> 100	> 100	–	–	–	–	–
C=C1c2nc3ccccc3n2C=C(c2ccccc2)N1c1ccc([N+](=O)[O-])cc1	44.5	> 100	27.6	68.2	42	25.9	> 55.7	59	–	–	–	–	–
COc1cc2c(cc1OC)C(c1ccccc1CCCCl)=NCC2	> 100	–	> 100	> 100	> 100	–	42	> 100	–	–	–	–	–
Oc1cccc2c(Cl)ccnc12	> 100	19.6	> 100	> 100	> 43.5	25.4	–	29.3	–	–	–	–	–
COc1cc(/C=C2\S/C(=N/Nc3nc(-c4ccc(Br)cc4)cs3)NC2=O)cc(OC)c1OC	35.1	33.2	11.7	18.6	–	–	–	30.8	–	–	–	–	–
CC1=C(C)[C@@]2(C)O[C@@]2(C)O[C@@]2(C)O[C@@]12C	> 100	> 100	> 100	> 100	> 100	> 100	–	–	–	–	–	–	–
CC[C@@]1(C[C@H]2C[C@@]3(C(=O)OC)c4[nH]c5ccccc5c4CCN3C2=O)COC2(CCCCC2)O1	> 100	> 100	–	> 100	–	> 100	–	–	–	–	–	–	–
CCOc1cc2c(cc1O)/C(=N\OC)C[C@@H]1[C@@H]2CC[C@]2(C)[C@@H](O)CC[C@@H]12	0.186	16.7	0.654	> 30.7	0.944	34.7	–	> 35.3	–	–	–	–	–
Clc1cc(OC2C3CC4CC(C3)CC2C4)nc(Cl)n1 (centres undefined)	88.5	14.4	–	37.9	39.6	30.1	43	29	–	–	–	–	–
COc1ccc(CNc2nc(NCc3ccc(OC)c(OC)c3)nc(NC3CCCCC3)n2)cc1	17.5	> 100	> 100	> 100	–	> 100	–	> 100	–	–	–	–	–
COC(=O)[C@H](Cc1c[nH]c2ccccc12)NP(=O)(O)OCC1C=CC(n2cc(C)c(=O)[nH]c2=O)O1 (some centres undefined)	> 100	> 100	> 100	> 100	> 100	–	> 100	> 100	–	–	–	–	–
O=C(CCC(=O)c1ccc(Cl)cc1)NO	> 100	> 100	> 100	> 100	> 100	–	> 100	> 100	–	–	–	–	–
CC(C)C1/C(=N/O)CC(c2ccccc2)N(N=O)C1c1ccccc1 (centres undefined)	> 100	> 100	> 100	> 100	–	61.9	> 100	> 100	–	–	–	–	–
NC(=O)C(c1ccccc1)N1OC2C(=O)N(c3ccccc3)C(=O)C2C1c1c2ccccc2c(Cl)c2ccccc12 (centres undefined)	> 100	> 100	> 100	> 100	–	> 100	> 100	> 100	–	–	–	–	–
COc1ccc(C2c3cc4c(cc3OC(NNS(=O)(=O)c3ccc(C)cc3)C2C)OCO4)cc1 (centres undefined)	–	> 100	> 100	> 100	> 100	> 100	> 100	> 100	–	–	–	–	–
Cc1cn(C2CC(N(O)C(N)=O)C(CO)O2)c(=O)[nH]c1=O (centres undefined)	> 100	–	–	> 100	> 100	> 100	> 100	> 100	–	–	–	–	–
CC1(C)N=C(/C(Cl)=[N+](/[O-])C(=O)c2ccc(F)cc2)C(C)(C)N1O	> 100	24.3	42.2	31.3	–	30.8	38.1	39.2	–	–	–	–	–
c1ccc(N=C2SC3=Nc4cccc5cccc(c45)N3C2=Nc2ccccc2)cc1	> 100	–	> 100	> 100	> 100	> 100	> 100	–	–	–	–	–	–
CCC[C@@H](O)C[C@@H]1CCC[C@H](C[C@@H](O)CC)N1C	> 100	> 100	> 100	> 100	> 100	–	> 100	> 100	–	–	–	–	–
CCCN=C1CCN(Cc2ccccc2)c2ccccc2N1	34.4	–	96.1	59.9	25.4	22.1	28.9	> 100	–	–	–	–	–
O=c1[nH]cc(N=Cc2cc(Cl)cc(Cl)c2O)c(=O)[nH]1	47.8	–	62.1	98.3	> 100	49.9	70.6	–	–	–	–	–	–
CCCNC1=C2CC(C)CC(OC)[C@@H](O)[C@H](C)/C=C(\C)C(OC(N)=O)C(OC)/C=C\C=C(/C)C(=O)NC(=CC1=O)C2=O (some centres undefined)	–	0.614	5.21	> 100	9.55	–	42.2	> 100	0.0466	0.244	0.463	0.0606	0.477
CC(=O)O[C@H]1C(=O)[C@]2(C)[C@@H](OC(=O)OCCC(O)CO)C[C@H]3OC[C@@]3(OC(C)=O)[C@H]2[C@H](OC(=O)c2ccccc2)[C@]2(O)C[C@H](OC(=O)[C@H](O)[C@@H](NC(=O)c3ccccc3)c3ccccc3)C(C)=C1C2(C)C (some centres undefined)	> 100	20.4	0.576	> 36.2	21.6	16.3	–	> 46.4	–	–	–	–	–
CCOC(=O)c1c2ccccc2n2c(N)c(C(N)=O)nnc12	> 100	> 100	–	> 100	71	> 100	> 100	> 100	–	–	–	–	–
C=C(Br)C(C)(Cl)CCC(Br)C(C)(C)Cl (centres undefined)	> 100	38	66.2	> 100	> 100	57.8	–	94.7	–	–	–	–	–
